From paper PMC5428354, “Screening of a natural compound library identifies emodin, a natural compound from Rheum palmatum Linn that inhibits DPP4” (PeerJ, 2017)
“And” between values parts separate entries of the source, which are not always exact repeats. Equal values may be shown once. Read-outs that look alike come from different tables or passages of the source.

Tests used:
Assay type in all cases: biochemical
DPP9 = biological target: T1, DPP9 (Homo sapiens, UniProt Q86TI2); assay: DPP9 activity assay (BPS Bioscience kit); conditions: 100 µM, Well #1-#3; for DPP9 activity: DMSO = Ctrl;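 on DPP9 assay, Emission (450 nm): 20 ng DPP9 per 100 µl reaction with DPP substrate 1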
T1 construct: purchased BPS Bioscience 800209

DPP8 = DPP8 (Homo sapiens, UniProt Q6V1X1); assay: DPP8 activity assay (BPS Bioscience kit); conditions: for DPP8 activity: DMSO = Ctrl;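 on DPP8 assay, Emission (450 nm): fluorescence read with excitation at 365 nm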
Method: A DPP8 assay kit was purchased from BPS Bioscience (Cat# 800208), and the assay protocol was followed to test for inhibitory activity on DPP8. Briefly, DPP substrate 1 was diluted to make a 100 µM stock solution, and DPP8 protein was diluted in DPP assay buffer to 2 ng/µl (20 ng/reaction). For the tested compounds, 10 µl of diluted DPP8 protein, 5 µl of diluted DPP substrate 1, 84 µl of DPP assay buffer and 1 µl of inhibitor were addedinto the assay system for a total volume of 100 µl. The reaction mixtures were prepared in duplicate on a 96-well plate and incubated at room temperature for 10 min. […]

DPP4 = DPP4 (Homo sapiens, UniProt P27487); assay: DPP4 activity assay (DPP4 inhibitor screening assay kit, Cayman); design: purchased Cayman Chemical, Ann Arbor, MI, USA; conditions: for remaining activity at 10 µM: 0.5 h; for IC50: in vitro, read-out: IC50 of DPP4 Inhibition;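 on all read-outs here: fluorescence read at excitation 360 nm and emission 460 nm after the enzyme reaction ran 30 min at 37 °C in a 96-well plate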
[1] = 10 µM, control mean 100.0, Figure 1A raw data, read-out: DPP4 activity in library screen, Exp 1
[2] = 10 µM, control mean 100.0, Figure 1A raw data, read-out: DPP4 activity in library screen, Exp 2
[3] = 10 µM, control mean 100.0, Figure 1A raw data, read-out: DPP4 activity in library screen, Exp 3
[4] = 10 µM, control mean 100.0, mean of Exp 1-3, read-out: DPP4 activity in library screen, Mean
[5] = read-out: DPP4 activity in library screen, Exp 1
[6] = read-out: DPP4 activity in library screen, Exp 2
[7] = read-out: DPP4 activity in library screen, Mean
[8] = 10 µM, control mean 100.0, Figure 1A raw data
[9] = 10 µM, control mean 100.0, mean of Exp 1-3

Chain of DPP8 (Q6V1X1 whole entry): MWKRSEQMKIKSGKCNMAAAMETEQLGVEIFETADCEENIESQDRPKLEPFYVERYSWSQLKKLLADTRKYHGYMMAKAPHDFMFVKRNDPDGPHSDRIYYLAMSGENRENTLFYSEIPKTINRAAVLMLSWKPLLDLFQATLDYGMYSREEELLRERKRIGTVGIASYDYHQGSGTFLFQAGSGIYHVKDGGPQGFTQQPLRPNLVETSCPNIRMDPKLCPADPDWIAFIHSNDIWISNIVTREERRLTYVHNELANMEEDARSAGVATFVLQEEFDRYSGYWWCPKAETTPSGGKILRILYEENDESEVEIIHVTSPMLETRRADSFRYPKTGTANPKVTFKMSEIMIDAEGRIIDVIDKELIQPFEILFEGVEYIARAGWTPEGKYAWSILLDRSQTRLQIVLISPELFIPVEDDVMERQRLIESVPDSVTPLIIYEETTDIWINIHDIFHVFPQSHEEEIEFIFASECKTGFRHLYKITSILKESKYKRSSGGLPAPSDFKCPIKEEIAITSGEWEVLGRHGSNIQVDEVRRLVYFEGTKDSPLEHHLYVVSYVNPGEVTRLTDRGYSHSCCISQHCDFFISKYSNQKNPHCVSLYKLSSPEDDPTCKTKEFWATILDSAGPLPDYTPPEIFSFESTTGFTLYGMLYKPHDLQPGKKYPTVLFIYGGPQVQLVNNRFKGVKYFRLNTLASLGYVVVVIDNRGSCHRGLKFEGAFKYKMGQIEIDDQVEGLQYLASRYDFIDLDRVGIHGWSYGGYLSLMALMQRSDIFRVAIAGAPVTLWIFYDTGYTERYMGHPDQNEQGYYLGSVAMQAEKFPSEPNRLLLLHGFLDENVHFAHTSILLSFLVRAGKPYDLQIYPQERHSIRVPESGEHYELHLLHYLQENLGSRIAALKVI
Chain of DPP4 (P27487 whole entry): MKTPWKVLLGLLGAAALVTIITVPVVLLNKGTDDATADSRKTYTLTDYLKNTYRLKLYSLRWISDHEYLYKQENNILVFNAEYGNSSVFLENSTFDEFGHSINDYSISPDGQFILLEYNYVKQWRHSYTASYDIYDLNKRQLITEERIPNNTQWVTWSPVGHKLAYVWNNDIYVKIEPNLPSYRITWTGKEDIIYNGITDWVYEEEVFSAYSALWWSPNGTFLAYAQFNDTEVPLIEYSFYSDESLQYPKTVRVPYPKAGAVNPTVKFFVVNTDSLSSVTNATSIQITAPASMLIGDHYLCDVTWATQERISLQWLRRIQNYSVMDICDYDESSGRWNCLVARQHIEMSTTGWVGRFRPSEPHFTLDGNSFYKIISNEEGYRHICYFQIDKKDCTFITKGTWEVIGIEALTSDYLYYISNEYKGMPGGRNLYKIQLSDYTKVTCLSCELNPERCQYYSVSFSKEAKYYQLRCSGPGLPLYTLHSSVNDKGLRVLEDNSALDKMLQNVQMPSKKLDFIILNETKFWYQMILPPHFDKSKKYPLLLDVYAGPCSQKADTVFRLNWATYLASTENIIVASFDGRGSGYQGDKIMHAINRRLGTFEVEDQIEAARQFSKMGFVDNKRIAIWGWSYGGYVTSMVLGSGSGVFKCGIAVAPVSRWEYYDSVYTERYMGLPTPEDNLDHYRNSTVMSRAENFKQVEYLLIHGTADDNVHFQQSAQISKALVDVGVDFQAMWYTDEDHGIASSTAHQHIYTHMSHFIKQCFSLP
T1 sequence (Q86TI2 whole entry): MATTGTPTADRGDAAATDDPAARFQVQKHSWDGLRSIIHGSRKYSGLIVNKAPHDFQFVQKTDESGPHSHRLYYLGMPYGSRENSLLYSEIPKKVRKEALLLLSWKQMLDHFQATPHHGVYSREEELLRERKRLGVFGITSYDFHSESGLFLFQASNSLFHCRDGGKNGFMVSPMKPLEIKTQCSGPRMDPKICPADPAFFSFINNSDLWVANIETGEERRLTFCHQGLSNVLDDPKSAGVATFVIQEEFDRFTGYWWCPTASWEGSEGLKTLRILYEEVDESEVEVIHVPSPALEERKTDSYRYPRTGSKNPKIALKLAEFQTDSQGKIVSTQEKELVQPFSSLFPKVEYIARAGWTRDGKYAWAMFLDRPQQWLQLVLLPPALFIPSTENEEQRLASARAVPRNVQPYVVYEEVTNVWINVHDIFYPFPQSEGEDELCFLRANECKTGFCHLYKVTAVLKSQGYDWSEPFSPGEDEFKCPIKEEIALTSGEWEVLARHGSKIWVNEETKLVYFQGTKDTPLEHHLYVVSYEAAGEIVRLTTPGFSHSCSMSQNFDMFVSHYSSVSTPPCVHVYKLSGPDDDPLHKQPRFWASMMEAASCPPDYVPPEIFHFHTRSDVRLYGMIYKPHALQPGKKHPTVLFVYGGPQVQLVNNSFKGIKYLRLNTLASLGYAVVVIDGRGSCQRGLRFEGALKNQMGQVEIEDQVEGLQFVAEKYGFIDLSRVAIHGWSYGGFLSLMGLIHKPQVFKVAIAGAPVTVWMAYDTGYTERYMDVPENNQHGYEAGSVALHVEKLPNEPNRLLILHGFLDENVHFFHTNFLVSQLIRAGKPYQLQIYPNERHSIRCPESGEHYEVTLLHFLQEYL

SMILES | remaining activity at 10 µM (DPP4; [1]) [%] | remaining activity at 10 µM (DPP4; [2]) [%] | remaining activity at 10 µM (DPP4; [3]) [%] | remaining activity at 10 µM (DPP4; [4]) [%] | other results
Cc1cc(O)c2c(c1)C(=O)c1cccc(O)c1C2=O [Chrysophanol] | 64.4 | 60 | 75 | 66.5 | DPP9 assay, Emission (450 nm) (DPP9): 43157 and 48875 and 45154; DPP9 activity (DPP9): 88.6 % of Ctrl and 100.3 % of Ctrl and 92.7 % of Ctrl; DPP8 assay, Emission (450 nm) (DPP8; 100 µM, Exp #1-#5): 27057 and 31330 and 23865 and 45793 and 40995; DPP8 activity (DPP8; 100 µM, Exp #1-#5): 77.8 % of Ctrl and 97.3 % of Ctrl and 112.7 % of Ctrl and 85.8 % of Ctrl and 86.9 % of Ctrl; IC50 (DPP4; means ± SE): > 100 µM
O=C(O)c1cc(O)c2c(c1)C(=O)c1cccc(O)c1C2=O [Rhein] | – | – | – | – | DPP9 assay, Emission (450 nm) (DPP9): 41706 and 44766 and 43536; DPP9 activity (DPP9): 85.6 % of Ctrl and 91.9 % of Ctrl and 89.4 % of Ctrl; IC50 (DPP8): > 100 µM; DPP8 activity (DPP8; 100 µM, Exp #1-#5): 54.9 % of Ctrl and 47.9 % of Ctrl and 41.4 % of Ctrl and 44.7 % of Ctrl and 72.6 % of Ctrl; activity against DPP8 (DPP8; tested at 100 µM): very weak activity; Ki (DPP4; DPP4, means ± SE): 3.42 ± 0.53 µM; IC50 (DPP4; means ± SE): 23.1 ± 3.57 µM
OC[C@@H](O)[C@@H](O)[C@H](O)[C@H](O)CO [D-Mannitol] | 96 | 95.6 | 83.5 | 91.7 | –
COc1ccc([C@@H]2CC(=O)c3c(O)cc(O)cc3O2)cc1O [Hesperetin] | 80.8 | 106 | 78.5 | 88.4 | –
Cc1coc2c1C(=O)C(=O)c1c-2ccc2c(C)cccc12 [Tanshinone I] | 56.8 | 59.3 | 58.1 | 58.1 | –
CC(C)(C)[C@]1(O)CC2OC(=O)CC23C(=O)OC2OC(=O)[C@H](O)C231 (stereo partly drawn) [Bilobalide] | – | – | – | – | remaining activity at 10 µM (DPP4; [5]): 97.2%; remaining activity at 10 µM (DPP4; [6]): 94.5%; remaining activity at 10 µM (DPP4; read-out: DPP4 activity in library screen, Exp 3): 103%; remaining activity at 10 µM (DPP4; [7]): 98.2%
O=C(O[C@@H]1Cc2c(O)cc(O)cc2O[C@@H]1c1cc(O)c(O)c(O)c1)c1cc(O)c(O)c(O)c1 [(-)-Epigallocatechin Gallate] | 100 | 90.2 | 81.9 | 90.8 | –
COC1=C[C@@H]2[C@@H]3Cc4ccc(OC)c(O)c4[C@]2(CCN3C)CC1=O [Sinomenine] | – | – | – | – | remaining activity at 10 µM (DPP4; [5]): 103%; remaining activity at 10 µM (DPP4; [6]): 93.4%; remaining activity at 10 µM (DPP4; [7]): 104%
CC(C)[C@]12O[C@H]1[C@@H]1O[C@]13[C@]1(O[C@H]1C[C@H]1C4=C(CC[C@@]13C)C(=O)OC4)[C@@H]2O [Triptolide (PG490), Triptolide] | – | – | – | – | remaining activity at 10 µM (DPP4; read-out: DPP4 activity in library screen, Exp 1, 10 µM, control mean 100.0, Figure 1A raw data): 98.7%; remaining activity at 10 µM (DPP4; read-out: DPP4 activity in library screen, Exp 2, 10 µM, control mean 100.0, Figure 1A raw data): 94.9%; remaining activity at 10 µM (DPP4; read-out: DPP4 activity in library screen, Exp 3, 10 µM, control mean 100.0, Figure 1A raw data): 109%; remaining activity at 10 µM (DPP4; read-out: DPP4 activity in library screen, Mean, 10 µM, control mean 100.0, mean of Exp 1-3): 101%
O=C1C=CC[C@@H]2[C@H]3CCCN4CCC[C@@H](CN12)[C@@H]34 [Sophocarpine] | 96.7 | 109 | 111 | 105 | –
COc1cc2c(cc1OC)[C@@H]1Cc3ccc(OC)c(OC)c3CN1CC2 [Rotundine] | 103 | 99.8 | 104 | 102 | –
O=C1CCC[C@@H]2[C@H]3CCC[N+]4([O-])CCC[C@@H](CN12)[C@@H]34 (stereo partly drawn) [Oxymatrine] | 106 | 103 | 83.7 | 97.6 | –
COc1ccc(-c2coc3cc(O)cc(O)c3c2=O)cc1 [Biochanin A] | – | – | – | – | DPP4 activity in library screen, Exp 1 (DPP4; [8]): 94.6; DPP4 activity in library screen, Exp 2 (DPP4; [8]): 100.9; DPP4 activity in library screen, Exp 3 (DPP4; [8]): 85.2; DPP4 activity in library screen, Mean (DPP4; [9]): 93.6
O=c1cc(-c2ccc(O)c(O)c2)oc2cc(O)cc(O)c12 [Luteolin] | 61.4 | 68.3 | 70 | 66.6 | –
O=c1c(O)c(-c2cc(O)c(O)c(O)c2)oc2cc(O)cc(O)c12 [Myricetin] | – | – | – | – | DPP4 activity in library screen, Exp 2 (DPP4; [8]): 57.5; DPP4 activity in library screen, Mean (DPP4; [9]): 57.9
O=C1c2c(O)cccc2C([C@@H]2O[C@H](CO)[C@@H](O)[C@H](O)[C@H]2O)c2cc(CO)cc(O)c21 (stereo partly drawn) [Aloin] | 91.5 | 70.4 | 71.7 | 77.9 | –

SMILES | remaining activity at 10 µM (DPP4; [1]) [%] | remaining activity at 10 µM (DPP4; [2]) [%] | remaining activity at 10 µM (DPP4; [3]) [%] | remaining activity at 10 µM (DPP4; [4]) [%] | other results
COc1cc(CCC(C)=O)ccc1O [Vanillylacetone] | – | – | – | – | DPP4 activity in library screen, Exp 1 (DPP4; [8]): 87.8; DPP4 activity in library screen, Exp 2 (DPP4; [8]): 96.8; DPP4 activity in library screen, Exp 3 (DPP4; [8]): 79.9; DPP4 activity in library screen, Mean (DPP4; [9]): 88.2
c1cc2c(cc1[C@H]1OC[C@H]3[C@@H]1CO[C@@H]3c1ccc3c(c1)OCO3)OCO2 [Sesamin] | 93.7 | 90 | 85.5 | 89.7 | –
COc1ccc(-c2coc3cc(O)ccc3c2=O)cc1 [Formononetin] | 102 | 85.5 | 108 | 98.7 | –
OCc1ccc(O[C@@H]2O[C@H](CO)[C@@H](O)[C@H](O)[C@H]2O)cc1 [Gastrodin] | 91 | 91.5 | 98.6 | 93.7 | –
CCCC[N+]1(C)[C@@H]2C[C@@H](OC(=O)[C@H](CO)c3ccccc3)C[C@H]1[C@@H]1O[C@@H]12 (stereo partly drawn) [Butylscopolamine bromide] | 97.5 | 98.7 | 78.2 | 91.5 | –
COc1ccc(C(C)=O)c(O)c1 [Paeonol] | 80.3 | 92.8 | 99.9 | 91 | –
CC1(C)[C@@H](O)CC[C@]2(C)[C@H]3C(=O)C=C4[C@@H]5C[C@@](C)(C(=O)O)CC[C@]5(C)CC[C@@]4(C)[C@]3(C)CC[C@@H]12 [Enoxolone] | 84.3 | 87 | 95.5 | 88.9 | –
COc1ccc(-c2cc(=O)c3c(OC)c(OC)c(OC)c(OC)c3o2)cc1OC [Nobiletin] | 81.7 | 69.9 | 67.6 | 73.1 | –
O=C1Nc2ccccc2/C1=C1/Nc2ccccc2C1=O [Indirubin] | 53.9 | 58.9 | 61.7 | 58.2 | –
C[C@H]1[C@H](C)CC[C@]2(C(=O)O)CC[C@]3(C)C(=CC[C@@H]4[C@@]5(C)CC[C@H](O)C(C)(C)[C@@H]5CC[C@]43C)[C@H]12 [Ursolic Acid] | 85.1 | 78.9 | 89.1 | 84.4 | –
OCc1ccccc1O[C@@H]1O[C@H](CO)[C@@H](O)[C@H](O)[C@H]1O [Salicin] | 72 | 94.5 | 87.9 | 84.8 | –
C[C@@H]1O[C@@H](O[C@H]2[C@H](Oc3cc(O)c(C(=O)CCc4ccc(O)cc4)c(O)c3)O[C@H](CO)[C@@H](O)[C@@H]2O)[C@H](O)[C@H](O)[C@H]1O [Naringin Dihydrochalcone] | – | – | – | – | DPP4 activity in library screen, Exp 1 (DPP4; [8]): 84.3; DPP4 activity in library screen, Exp 2 (DPP4; [8]): 82.4; DPP4 activity in library screen, Exp 3 (DPP4; [8]): 91.6; DPP4 activity in library screen, Mean (DPP4; [9]): 86.1
COc1cc2c(cc1O)C[C@@H]1NCCc3cc(OC)c(O)c-2c31 [Norisoboldine] | – | – | – | – | DPP4 activity in library screen, Exp 1 (DPP4; [8]): 95.3; DPP4 activity in library screen, Exp 2 (DPP4; [8]): 99.3; DPP4 activity in library screen, Exp 3 (DPP4; [8]): 71; DPP4 activity in library screen, Mean (DPP4; [9]): 88.5
Br.CCN1C[C@]2(OC(=O)c3ccccc3NC(C)=O)CC[C@H](OC)[C@]34C1[C@H](C[C@H]23)[C@@]1(O)C[C@H](OC)[C@H]2C[C@@H]4[C@]1(O)[C@H]2OC [Lappaconite HBr] | – | – | – | – | DPP4 activity in library screen, Exp 1 (DPP4; [8]): 95.4; DPP4 activity in library screen, Exp 2 (DPP4; [8]): 80.2; DPP4 activity in library screen, Exp 3 (DPP4; [8]): 92.6; DPP4 activity in library screen, Mean (DPP4; [9]): 89.4
C[C@H]1[C@@H](O)O[C@@H]2O[C@@]3(C)CC[C@H]4[C@H](C)CC[C@@H]1[C@@]24OO3 [Dihydroartemisinin (DHA), Dihydroartemisinin] | 97.1 | 91 | 88.2 | 92.1 | –
